Experimental data as given in ChEMBL document CHEMBL1150751, “Bioactive components of Allamanda schottii” (J Nat Prod, 1988).
In brackets after ≈: the same amount, converted by molar mass. Activity calls are given as the source filed them. The calls are words filed in the database; no cut-off is given here.

What was measured:
[1] = test system: Artemia; test: Toxicity in brine shrimp; assay type: organism-based; conditions: in vivo
[2] = Cytotoxicity against human 9KB cells; assay type: functional; conditions: read-out: ED50 (the source's name)
[3] = test system: P388; test: Antileukemic activity against mouse P388 cells xenografted in mouse; assay type: functional
[4] = test system: Agrobacterium tumefaciens; test: Antitumor activity against Agrobacterium tumefaciens-induced crown gall tumor in potato tubers by potato disk assay; assay type: functional

SMILES	LC50 [1]	EC50 [2]	T/C [3]	inhibition (INH) [4]	inhibition [4]
C/C=C1/C(=O)O[C@@]23C=C[C@H]4[C@@H](C(=O)OC)[C@H](O)O[C@@H](O[C@H]12)[C@H]43 [ALLAMANDIN]	21.3 ppm	2.1 µg/mL (≈ 6.81 µM)	145%	51%	–
C/C=C1/C(=O)O[C@@]23C=C[C@H]4C[C@H](O)O[C@@H](O[C@H]12)[C@H]43 [ALLAMCIN]	> 1000 ppm	–	–	–	inactive
C/C=C1\C(=O)O[C@]23C=C[C@@H]4C(C(=O)OC)=CO[C@H](O[C@@H]12)[C@@H]43 [ISOPLUMERICIN]	1.7 ppm	2.7 µg/mL (≈ 9.3 µM)	145%	44%	–
COc1cc([C@H]2OC[C@H]3[C@@H]2CO[C@H]3c2ccc(O)c(OC)c2)ccc1O [PINORESINOL]	377 ppm	100 µg/mL (≈ 279 µM)	–	–	inactive
C/C=C1/C(=O)O[C@]23C=C[C@@H]4C(C(=O)OC)=CO[C@H](O[C@@H]12)[C@@H]43 [PLUMERICIN]	1.7 ppm	2.6 µg/mL (≈ 8.96 µM)	–	44%	–
COc1cc2ccc(=O)oc2cc1OC [SCOPARONE]	349 ppm	61 µg/mL (≈ 296 µM)	–	–	inactive
COc1cc2ccc(=O)oc2cc1O [SCOPOLETIN]	55 ppm	16 µg/mL (≈ 83.3 µM)	133%	20%	–
